Experimental data from paper PMC10997755, “Discovery of a small-molecule inhibitor that traps Polθ on DNA and synergizes with PARP inhibitors” (Nature Communications, 2024).
Several values for one entry are separate records, joined by “and”; a condition that tells them apart may be missing. Equal values may be shown once. Entries after “also recorded” stand apart in the source; their conditions may differ.

Assays:
[1] = biological target: T1, recombinant human full-length Polθ (Fl-Polθ) (Homo sapiens, UniProt O75417); experiment: Fl-Polθ DNA/DNA primer extension; assay type: biochemical; conditions: 0.15-12 µM, gel
T1 construct: recombinant human full-length Polθ (Fl-Polθ); made in house
T1 sequence (O75417 whole entry): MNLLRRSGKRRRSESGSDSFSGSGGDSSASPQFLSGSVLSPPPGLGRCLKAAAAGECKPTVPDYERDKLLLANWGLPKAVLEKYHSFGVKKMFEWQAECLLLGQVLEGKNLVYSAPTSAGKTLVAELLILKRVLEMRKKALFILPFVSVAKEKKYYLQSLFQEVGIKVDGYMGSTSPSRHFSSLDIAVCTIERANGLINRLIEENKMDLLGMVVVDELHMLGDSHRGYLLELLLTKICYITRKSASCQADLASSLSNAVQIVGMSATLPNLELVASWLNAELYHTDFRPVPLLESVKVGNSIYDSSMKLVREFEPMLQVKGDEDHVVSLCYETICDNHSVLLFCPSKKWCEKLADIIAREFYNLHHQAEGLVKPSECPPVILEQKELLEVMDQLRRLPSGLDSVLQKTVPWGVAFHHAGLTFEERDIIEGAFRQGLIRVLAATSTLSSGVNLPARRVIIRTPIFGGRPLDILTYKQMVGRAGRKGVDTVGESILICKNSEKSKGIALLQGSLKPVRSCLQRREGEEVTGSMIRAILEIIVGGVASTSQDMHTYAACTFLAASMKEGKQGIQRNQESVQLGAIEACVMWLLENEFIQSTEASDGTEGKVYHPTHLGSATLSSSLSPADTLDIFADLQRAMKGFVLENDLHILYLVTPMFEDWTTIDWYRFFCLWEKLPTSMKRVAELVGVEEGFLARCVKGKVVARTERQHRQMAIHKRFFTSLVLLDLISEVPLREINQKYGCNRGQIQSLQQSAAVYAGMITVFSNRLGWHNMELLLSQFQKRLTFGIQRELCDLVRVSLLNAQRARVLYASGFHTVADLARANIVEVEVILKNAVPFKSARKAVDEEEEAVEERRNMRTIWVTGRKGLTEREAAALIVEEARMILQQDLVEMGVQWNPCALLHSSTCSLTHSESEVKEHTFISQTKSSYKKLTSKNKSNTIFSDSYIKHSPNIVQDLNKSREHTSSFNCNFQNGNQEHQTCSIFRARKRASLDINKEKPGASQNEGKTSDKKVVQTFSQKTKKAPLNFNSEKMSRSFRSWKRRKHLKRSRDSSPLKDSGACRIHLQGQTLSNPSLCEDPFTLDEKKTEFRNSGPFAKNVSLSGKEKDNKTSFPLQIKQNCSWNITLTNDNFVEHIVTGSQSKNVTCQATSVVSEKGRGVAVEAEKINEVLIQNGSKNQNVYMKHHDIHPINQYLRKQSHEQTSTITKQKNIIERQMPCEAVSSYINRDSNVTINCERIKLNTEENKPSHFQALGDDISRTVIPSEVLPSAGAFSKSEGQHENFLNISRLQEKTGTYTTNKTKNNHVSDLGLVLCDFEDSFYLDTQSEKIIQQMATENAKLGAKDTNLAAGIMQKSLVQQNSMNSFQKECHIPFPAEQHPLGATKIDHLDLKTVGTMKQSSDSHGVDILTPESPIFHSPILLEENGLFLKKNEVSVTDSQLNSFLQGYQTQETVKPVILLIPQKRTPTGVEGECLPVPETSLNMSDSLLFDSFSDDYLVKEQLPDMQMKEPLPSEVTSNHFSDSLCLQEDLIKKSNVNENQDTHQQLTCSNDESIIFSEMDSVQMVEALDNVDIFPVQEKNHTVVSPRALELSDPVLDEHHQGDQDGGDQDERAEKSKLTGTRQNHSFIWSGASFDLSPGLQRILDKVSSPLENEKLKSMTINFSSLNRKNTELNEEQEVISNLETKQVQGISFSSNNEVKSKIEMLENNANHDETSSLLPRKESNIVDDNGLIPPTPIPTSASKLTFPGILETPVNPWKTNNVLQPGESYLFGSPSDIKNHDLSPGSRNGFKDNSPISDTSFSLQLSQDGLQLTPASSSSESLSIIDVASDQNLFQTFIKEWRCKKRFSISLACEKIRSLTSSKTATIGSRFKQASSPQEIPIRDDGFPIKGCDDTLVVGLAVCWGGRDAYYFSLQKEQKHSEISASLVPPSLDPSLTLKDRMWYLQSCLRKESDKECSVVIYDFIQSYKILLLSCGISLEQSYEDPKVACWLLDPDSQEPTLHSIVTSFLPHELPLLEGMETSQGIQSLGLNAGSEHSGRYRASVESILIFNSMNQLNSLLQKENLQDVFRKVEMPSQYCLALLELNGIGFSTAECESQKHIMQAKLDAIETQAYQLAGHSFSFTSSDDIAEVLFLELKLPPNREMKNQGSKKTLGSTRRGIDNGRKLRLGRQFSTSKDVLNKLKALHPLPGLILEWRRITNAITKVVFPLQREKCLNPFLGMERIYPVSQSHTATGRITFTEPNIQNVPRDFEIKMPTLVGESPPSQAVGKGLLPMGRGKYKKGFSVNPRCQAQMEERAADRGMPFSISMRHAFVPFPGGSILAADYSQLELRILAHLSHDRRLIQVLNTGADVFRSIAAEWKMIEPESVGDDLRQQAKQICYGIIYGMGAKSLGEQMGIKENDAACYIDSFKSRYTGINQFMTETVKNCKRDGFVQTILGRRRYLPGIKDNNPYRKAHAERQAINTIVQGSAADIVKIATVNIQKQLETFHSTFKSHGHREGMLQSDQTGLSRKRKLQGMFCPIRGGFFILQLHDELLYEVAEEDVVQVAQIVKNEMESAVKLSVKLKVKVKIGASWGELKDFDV

[2] = biological target: T2, PolθΔL (Homo sapiens, UniProt O75417, C1895G/DEL1861-1870/DEL1873-1894/DEL1918-1929/DEL2146-2157/DEL2161-2173/DEL2261-2287/DEL2291-2305/DEL2513-2514/DEL2518-2524/F2289G/F2526G/L1930G/L2158G/L2516G/M2525G/P1932S/P1933G/R2175G/R2306G/S1934G/V1931G); experiment: PolθΔL primer extension; assay type: biochemical
T2 construct: The gene encoding Polθ-pol (residues 1819–2590) was cloned into a pSUMOstar vector; 6xHis (N, cleaved yes); SUMO (N); made in house; host or cells: E. coli BL21(DE3)
T2 sequence (O75417 with tags, fused parts or gaps with the stated changes): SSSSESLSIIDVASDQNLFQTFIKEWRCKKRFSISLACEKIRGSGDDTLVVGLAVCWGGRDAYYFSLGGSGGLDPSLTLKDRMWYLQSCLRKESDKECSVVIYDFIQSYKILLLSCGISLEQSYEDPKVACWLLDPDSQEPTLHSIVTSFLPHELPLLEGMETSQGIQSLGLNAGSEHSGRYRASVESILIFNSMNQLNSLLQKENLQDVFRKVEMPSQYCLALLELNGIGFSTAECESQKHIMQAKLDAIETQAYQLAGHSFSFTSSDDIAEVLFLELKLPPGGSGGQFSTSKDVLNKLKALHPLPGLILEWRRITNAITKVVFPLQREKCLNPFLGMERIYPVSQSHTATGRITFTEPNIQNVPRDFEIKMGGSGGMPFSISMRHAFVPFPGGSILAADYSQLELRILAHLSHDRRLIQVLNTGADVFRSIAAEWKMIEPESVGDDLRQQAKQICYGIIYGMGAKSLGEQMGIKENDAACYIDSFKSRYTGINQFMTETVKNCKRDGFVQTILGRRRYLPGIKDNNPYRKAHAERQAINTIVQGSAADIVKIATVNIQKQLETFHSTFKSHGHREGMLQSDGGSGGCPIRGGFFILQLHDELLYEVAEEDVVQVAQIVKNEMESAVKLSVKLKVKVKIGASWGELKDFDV

[3] = tested on: DLD1 BRCA2 -/- cells; experiment: γ-H2AX immunofluorescence; assay type: cell-based
Protocol: (§1) Cells were plated on six well plates with glass-coverslips and treated with RTX-161 day after plating. Four days after treatment, cells were fixed with 4% (v/v) paraformaldehyde for 20 min at 4 °C, washed with PBS, permeabilized with 0.5% (v/v) Triton X for 10 min and blocked with PBS containing 3% BSA. Cells were incubated with primary antibody overnight at 4 °C followed by 3x washes with PBS and then 1 h incubation with secondary antibody. The incubations were performed in the dark in a humidified chamber. After 3x washing in PBS for 3 min, slides were mounted in 20 ul Prolong antifade with DAPI (LifeTechnologies) to counterstain the nuclei. Cells were visualized and imaged using Nikon A1R Confocal microscope at a 63X objective magnification, and images were analyzed using ImageJ software. For quantification, >50 cells were counted for all conditions from three independent experiments. The primary antibody used for IF was rabbit anti-gamma H2AX [p Ser139] antibody (Bethyl Lab #A700-053) 1:500 dilution in 1% BSA in PBS. The secondary antibody was Goat anti-Rabbit IgG (H + L) Secondary Antibody, DyLight 488 (Thermo #35552) 1:2000 dilution in 1% BSA in PBS.

[4] = tested on: DLD1 Parental cells; experiment: γ-H2AX immunofluorescence; assay type: cell-based; conditions: DLD1-BRCA2-WT, 5 microM
Protocol: as §1

[5] = tested on: DLD1 BRCA2 -/- cells; experiment: Apoptosis assay (FITC active caspase-3); assay type: cell-based; design: FITC+ AVG / FITC- AVG: unit not given here; conditions: for % population FITC Caspase-3 Negative / % population FITC Caspase-3 Positive: bar matched by sums to 100; for FITC+ AVG / FITC- AVG: DLD1 BRCA2 null
Protocol: DLD1 BRCA2 -/-, DLD1 Parental cells were plated on six well plates and treated with RTX-161 1 day after plating. Medium was replaced every 2 days with RTX-161. Cells were harvested 6 days after plating for apoptosis assay using FITC active caspase-3 apoptosis kit (BD biosciences, catalog # 550480) according to manufacturer’s instructions and analyzed by FACS with Celesta (Becton Dickinson).

[6] = biological target: T3, Polγ (Homo sapiens, UniProt P54098); experiment: Primer extension by recombinant Pols (selectivity); assay type: biochemical
T3 construct: gift: Dr. Copeland (NIEHS)
T3 sequence (P54098 1-1239): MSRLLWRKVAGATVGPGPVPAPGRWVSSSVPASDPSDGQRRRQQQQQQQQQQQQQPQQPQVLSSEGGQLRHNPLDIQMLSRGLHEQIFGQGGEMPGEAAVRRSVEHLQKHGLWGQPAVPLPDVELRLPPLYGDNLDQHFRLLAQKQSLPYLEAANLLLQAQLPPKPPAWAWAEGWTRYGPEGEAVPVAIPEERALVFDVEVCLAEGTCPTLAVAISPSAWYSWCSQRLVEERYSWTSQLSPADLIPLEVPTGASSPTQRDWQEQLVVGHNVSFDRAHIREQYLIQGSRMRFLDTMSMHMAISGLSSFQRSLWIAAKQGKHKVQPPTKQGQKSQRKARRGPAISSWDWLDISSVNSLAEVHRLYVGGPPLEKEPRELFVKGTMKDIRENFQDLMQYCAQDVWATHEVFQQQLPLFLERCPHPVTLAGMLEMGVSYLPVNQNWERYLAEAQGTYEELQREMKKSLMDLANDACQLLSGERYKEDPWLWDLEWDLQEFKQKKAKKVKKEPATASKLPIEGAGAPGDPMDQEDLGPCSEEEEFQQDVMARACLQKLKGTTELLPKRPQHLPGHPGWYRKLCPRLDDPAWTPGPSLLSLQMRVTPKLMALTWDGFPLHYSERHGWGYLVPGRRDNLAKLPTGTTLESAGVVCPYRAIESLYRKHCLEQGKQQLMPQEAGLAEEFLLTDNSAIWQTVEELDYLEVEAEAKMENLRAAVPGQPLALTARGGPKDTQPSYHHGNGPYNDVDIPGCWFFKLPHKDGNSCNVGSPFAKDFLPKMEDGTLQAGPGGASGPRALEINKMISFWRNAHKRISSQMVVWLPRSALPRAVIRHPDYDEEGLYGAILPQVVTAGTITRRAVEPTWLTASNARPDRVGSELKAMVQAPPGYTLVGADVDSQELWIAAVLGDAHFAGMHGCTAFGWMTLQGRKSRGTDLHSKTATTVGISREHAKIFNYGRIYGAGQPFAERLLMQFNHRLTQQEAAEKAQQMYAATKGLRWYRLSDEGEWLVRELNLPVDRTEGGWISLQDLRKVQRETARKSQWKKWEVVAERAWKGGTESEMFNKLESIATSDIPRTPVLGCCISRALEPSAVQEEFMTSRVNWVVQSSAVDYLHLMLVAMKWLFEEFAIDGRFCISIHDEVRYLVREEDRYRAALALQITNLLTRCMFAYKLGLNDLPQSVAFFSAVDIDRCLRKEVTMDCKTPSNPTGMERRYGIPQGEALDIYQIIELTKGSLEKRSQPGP

SMILES: CN(C(=O)Oc1ccc(C(F)(F)F)cc1C(F)(F)F)c1ccc(F)cc1 [MC160385]
- inhibition of Fl-Polθ DNA synthesis activity [1]: inhibits; also recorded: inhibition
- inhibition of PolθΔL primer extension [2]: inhibits

SMILES: CN(C(=O)Oc1c(N2CCN(CCO)C2=O)cc(C(F)(F)F)cc1C(F)(F)F)c1ccc(F)cc1 [RTx-161]
- Percent of positive nuclei, Average ([3]; DLD1- BRCA2-null, 5 microM, Average of Expt 1-3 (DMSO 14.884)): 48.7855%
- Percent of positive nuclei (3 or more than 3 g-H2AX foci) ([3]; DLD1- BRCA2-null, 5 microM, single Experiments 1-3): 47.2973% and 43.3071% and 55.7522%
- DNA damage (γ-H2AX phosphorylation) ([3]; immunofluorescence and Western blot, versus parental): selectively caused DNA damage
- Percent of positive nuclei, Average ([4]; Average of Expt 1-3 (DMSO 4.28755)): 10.2071%
- Percent of positive nuclei (3 or more than 3 g-H2AX foci) ([4]; single Experiments 1-3): 11.5942% and 12.5984% and 6.429%
- % population FITC Caspase-3 Negative ([5]; 10 uM RTX-161): 92%
- % population FITC Caspase-3 Positive ([5]; 10 uM RTX-161): 8%
- % population FITC Caspase-3 Negative ([5]; 20 uM RTX-161): 90%
- % population FITC Caspase-3 Positive ([5]; 20 uM RTX-161): 10%
- FITC+ AVG ([5]; 10 uM, left block of sheet): 8.433
- FITC- AVG ([5]; 10 uM, left block of sheet): 91.5667
- FITC+ AVG ([5]; 10 uM, middle block of sheet): 12.1
- FITC- AVG ([5]; 10 uM, middle block of sheet): 87.9
- FITC+ AVG ([5]; 10 uM, right block of sheet): 12.3333
- FITC- AVG ([5]; 10 uM, right block of sheet): 87.6667
- FITC+ AVG ([5]; 20 uM, left block of sheet): 9.633
- FITC- AVG ([5]; 20 uM, left block of sheet): 90.3667
- FITC+ AVG ([5]; 20 uM, middle block of sheet): 13.8333
- FITC- AVG ([5]; 20 uM, middle block of sheet): 86.1667
- FITC+ AVG ([5]; 20 uM, right block of sheet): 13.3333
- FITC- AVG ([5]; 20 uM, right block of sheet): 86.6667
- apoptosis ([5]; versus parental): selectively induced PARP cleavage and apoptosis
- % Full Extension ([6]; Pol Gamma): 81.33%
- % Inhibition Compared to Control ([6]; Pol Gamma): 1.34%
- % Relative Maximum Extension ([6]; Pol Gamma): 98.66%
- inhibition of primer extension ([6]; selectivity panel): no inhibition
